{"source": "patent US7589125B2", "about": "“2,4-dihydroxybenzoic acid derivatives” (Palau Pharma, S.A., priority 2002, dated 2009)", "key": {"farnesyltransferase": {"biological_target": "farnesyltransferase (Homo sapiens, UniProt P49356)", "sequence (P49356 whole entry)": "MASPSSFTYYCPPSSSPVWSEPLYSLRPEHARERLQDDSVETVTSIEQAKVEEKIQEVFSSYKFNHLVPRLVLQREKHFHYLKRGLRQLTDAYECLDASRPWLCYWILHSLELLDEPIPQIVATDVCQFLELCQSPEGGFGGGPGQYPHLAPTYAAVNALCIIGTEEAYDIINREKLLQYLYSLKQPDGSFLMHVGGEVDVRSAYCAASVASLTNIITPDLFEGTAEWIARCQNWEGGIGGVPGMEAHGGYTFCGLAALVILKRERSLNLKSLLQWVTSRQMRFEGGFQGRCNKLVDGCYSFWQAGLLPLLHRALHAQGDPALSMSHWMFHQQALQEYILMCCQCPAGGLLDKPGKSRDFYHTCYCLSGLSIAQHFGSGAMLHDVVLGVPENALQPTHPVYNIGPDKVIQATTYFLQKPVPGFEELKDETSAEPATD", "details": "Hardcastle et al, Tetrahedron Letters 2001, 42(7), 1363-1365; cited from earlier work"}, "Male Lewis rats": {"test_system": "Male Lewis rats", "assay": "Test 3 - Inhibition of adjuvant-induced arthritis in the rat", "assay_type": "in vivo", "details": "10 mg/kg/day p.o. for 28 days", "description": "Test 3—Inhibition of Adjuvant-induced Arthritis in the Rat\nMethod: Male Lewis rats with body weight between 140 and 170 g and 7 week-old were used. Before the start of the study animals were acclimated for a period of at least 5 days. Animals were fasted for 18 hours before the study, with water ad libitum. Throughout the study, animals were allowed free access to drinking water, except during observation periods.\nGroups of five animals were randomized (Sham, Control and Test compound). The duration of the study was 28 days. Arthritis was induced on day 1 of the study by a single subplantar injection of 0.1 mL of an emulsion prepared with 10 mg Mycobacterium butyricum and 10 mL Freund's incomplete adjuvant (Difco) to the right hindpaw of the animals from the Control (C) and Test compound (T) groups. Sham animals (S) received 0.1 mL Freund's incomplete adjuvant. Test compound was administered daily from day 1 of the study until day 28 at a dose of 10 mg/kg p.o. as a suspension in 1% Tween 80® while the Control group only received the vehicle. On day 28 of the development of arthritis, the volume of the left paw (secondary edema) was determined using a UGO BASILE 7150 plethysmometer. The inhibition of the increase in volume was calculated as follows: % Inh.=100−((T−S)/(C−S))*100 Where: T=Test compound group; C=Control group; and S=Sham group"}, "[1]": {"test_system": "human umbilical vein endothelial cells (HUVEC)", "assay": "Cell viability in human non-proliferating cells (HUVEC)", "assay_type": "cell-based", "details": "concentrations up to 500 μM, 72 h of incubation"}, "[2]": {"test_system": "splenic lymphocytes from C57BL/6 mice stimulated with splenic lymphocytes from CBA mice", "assay": "Test 4 - Immunosuppression model: murine mixed lymphocyte reaction", "assay_type": "cell-based", "description": "Test 4—Immunosupression Model: Murine Mixed Lymphocyte Reaction\nMethod: Immunosuppression was assessed by testing the effects of the compounds on the proliferation of splenic lymphocytes from C57BL/6 mice strain stimulated with splenic lymphocytes from CBA mice strain. Splenic lymphocyte populations were isolated from two mouse strains: CBA (acting as stimulating cells) and C57BL/6 (acting as proliferating cells). Homogenized mouse spleen was filtered and subsequently centrifuged at 250×g for 5 minutes at 4° C. The pellets were resuspended in culture medium (RPMI 1640 supplemented with 5% fetal calf serum and 2% antibiotics) and after repeating this process twice they were adjusted to a final density of 5×10^6 cells/mL. The isolated lymphocytes from CBA strain were treated with mitomycin C to block their proliferation.\nIn a 96-well plate, solutions of the test compounds or culture medium alone (for the control) were distributed. Next, 5×10^5 C57BL/6 cells and 2.5×10^5 CBA cells were added and incubated for 48 h (37° C., 5% CO2). After this preincubation 1 μCi of [^3H]-thymidine and 0.2 mM unlabeled thymidine were added to each well and the mixture was incubated 24 h. […]\nLymphocyte proliferation was measured as [^3H]-thymidine incorporation into the DNA of responding cells (C57BL/6) using a liquid scintillation counter (LS series, Beckman)."}, "[3]": {"test_system": "immune-deficient BNX mice transplanted with human psoriatic skin", "assay": "Test 2 - Psoriasis model in immune-deficient BNX mice transplanted with human psoriatic skin", "assay_type": "in vivo", "details": "topical ointment at the concentration of 0.1%; p<0.01", "source_text": "Test 2—Psoriasis Model in Immune-deficient BNX Mice Transplanted with Human Psoriatic Skin\nMethod: The goal of this study is to assess the effect of the test compounds on the development of a psoriatic lesion, induced by super-antigen-activated human peripheral blood T-cells, in non-lesional skin from a psoriasis patient transplanted onto immune-deficient BNX mice. Mice (male/female, circa 20 g, 5 mice per group) were transplanted with non-lesional skin biopsies from psoriasis patients. Peripheral blood mononuclear cells from the same patients were isolated and stored in freezer until further use. Transplants were allowed to “lake” for 4 weeks. After this period, transplants were treated topically with test compound or control (vehicle) preparations for 1 week. Then, peripheral blood mononuclear cells from psoriatic patients, previously activated in vitro for 2 days with super-antigen, were injected into the transplants intra-dermally. Transplants were treated with test compound or control preparations for two additional weeks. Transplants were then harvested and epidermal thickness was measured by using computer-aided morphometric analysis."}, "Male Swiss mice": {"test_system": "Male Swiss mice", "assay": "Test 1 - Oxazolone-induced delayed hypersensitivity in mice (ear edema)", "assay_type": "in vivo", "details": "topical on right ear, solution in acetone; FIG. 1", "description": "Test 1—Oxazolone-induced Delayed Hipersensitivity in Mice\nMethod: Male Swiss mice (25-30 g body weight) were sensitized by the application of a 2% solution of oxazolone (Sigma) in acetone (50 μL) into the shaved abdomen. Seven days later, 25 μL of a 1.5% solution of oxazolone was applied on both surfaces of the right ear of the animals. The left ear served as control and was only treated with the vehicle (acetone). 20 μL of the test compound (dissolved in acetone) or vehicle alone (control) was applied on both sides of the right ear, 24 h before challenge and 1 and 5 h after challenge. To evaluate the edema, mice were killed (by CO2 inhalation) and an 8 mm disc was excised from the right and left ears. The edema was measured by the difference in weight between the two ears and inhibition was expressed as percentage in relation to the control group."}, "[4]": {"test_system": "human peripheral blood mononuclear cells (PBMC)", "assay": "Cell viability in human non-proliferating cells (PBMC)", "assay_type": "cell-based", "details": "concentrations up to 500 μM, 72 h of incubation"}, "[5]": {"test_system": "hamster lung fibroblast cell line (V79 cells)", "assay": "Test 5 - Induction of apoptosis in tumor cells (active caspase-3, flow cytometry)", "assay_type": "cell-based", "description": "Test 5: Induction of Apoptosis in Tumor Cells\nMethod: The ability of the compounds of the invention to induce apoptosis was determined in a hamster lung fibroblast cell line (V79 cells). To determine the induction of apoptosis a commercially available kit was used (CaspaTag™ Caspase-3 (DEVD) Activity Kit, Intergen); this kit detects the presence in the cells of the active form of the enzyme caspase-3, which is an apoptosis marker. V79 cells were incubated for 72 h in culture medium (DMEM supplemented with 2 mM Glutamine and 10% fetal calf serum) in the presence of test compound (30 and 100 μM; solution in phosphate-buffered saline) or vehicle. Next, cells were washed with phosphate-buffered saline, treated with Trypsin-EDTA solution until the cell layer was dispersed and were resuspended in fresh growth medium at a concentration of 10^6 cells/mL. A 300 μL aliquote of each of the samples was transferred to a tube and was incubated with the irreversible, carboxyfluorescein-labeled peptidic caspase-3 inhibitor FAM-DEVD-FMK for 1 hour at 37° C. in 5% CO2 and protecting the tubes from light following the kit's instructions. […] The inhibitor in excess was washed and the cells were then analyzed by flow cytometry at 488 nm."}}, "data": [{"compound": "O=C(O)c1c(O)c(F)c(OCCCF)c(F)c1F", "note": "[2,3,5-trifluoro-4-(3-fluoropropoxy)-6-hydroxybenzoic acid]", "values": [{"measurement": "farnesyltransferase inhibition", "setting": "farnesyltransferase", "value": "inactive"}]}, {"compound": "COC(=O)c1ccc(OCCF)cc1O", "note": "[Example 4, Methyl 2-hydroxy-4-(2-fluoroethoxy)benzoate]", "values": [{"measurement": "melting point", "value": 64, "unit": "°C"}]}, {"compound": "O=C(O)c1ccc(OCC(F)(F)C(F)(F)F)cc1O", "note": "[Example 6, 2-Hydroxy-4-(2,2,3,3,3-pentafluoropropoxy)benzoic acid]", "values": [{"measurement": "inhibition of the increase in volume of the left paw (secondary edema)", "setting": "Male Lewis rats", "value": "significant inhibition"}, {"measurement": "cell viability", "setting": "[1]", "value": "not to affect cell viability"}, {"measurement": "inhibition of mice splenic lymphocyte proliferation ([3H]-thymidine incorporation)", "setting": "[2]; 300 μM", "value": "completely inhibited"}, {"measurement": "inhibition at 100 µM", "setting": "[2]; Mus musculus, Splenic lymphocyte, 100 μM, read-out: inhibition of the proliferation of mice splenic lymphocytes", "value": 60, "unit": "%"}, {"measurement": "inhibition of the increase of the epidermal thickness induced by intradermal injection of activated mononuclear cells", "setting": "[3]", "value": "significant inhibition"}, {"measurement": "inhibition of the edema (difference in weight between the two ears)", "setting": "Male Swiss mice", "value": "concentration-dependent inhibition of the edema"}, {"measurement": "cell viability", "setting": "[4]", "value": "not to affect cell viability"}, {"measurement": "number of cells containing the active form of caspase-3 (apoptotic cells)", "setting": "[5]; 30 and 100 μM, 72 h incubation, FIG. 2", "value": "concentration-dependent increase"}, {"measurement": "morphological observation of the cells (activation of apoptosis)", "setting": "[5]; V79 cells", "value": "presence of cell membrane blebbing and the formation of apoptotic bodies"}]}]}
